Entries after “also recorded” stand apart in the source; their conditions may differ.
Legend:
Con1 replicon cells = assay: 8-OHG oxidative RNA damage in SgPC2 Con1 replicon cells (ELISA); format: cell-based, human; settings: for level of 8-OHG in ethanol and BSO-treated replicon cells with inhibitor: 0.5% ethanol or 20 μM BSO daily for 48 hr, 10 μM dipyridyl, 2 mM GSH ester, 5 μM PIH, 0.1 mM DETAPAC, 1 mM L-NMA, DPI, 25 μM DADS
Protocol: Total RNA was isolated using Trizol (Invitrogen) and analyzed for 8-OH-guanosine (8-OH-G) by northwestern, as described (Shan X et al. (2003) J. Neurosci. 23:4913-4921). Briefly, RNA was size-fractionated by agarose gel electrophoresis, transferred to a nylon membrane, blocked with 1% BSA, incubated sequentially with monoclonal anti-8-OH-G/dG antibodies (QED Bioscience, Inc.) and then with goat anti-mouse HRP-conjugated secondary antibody (Santa Cruz Biotechnology), and signals were detected, using an ECL kit (Amersham). In addition, RNA was digested with nuclease P1 (Sigma, US Biological) and alkaline phosphatase (Promega) and analyzed for 8-OH-G content using RNA Damage Kit (Cell Biolabs, Inc.), following manufacturer's protocols.
Total RNA was isolated using Trizol (Invitrogen) and analyzed for 8-OHG by ELISA. Briefly, RNA was incubated with 10 U DNase I (GE Healthcare), 10 U nuclease P1 (Sigma or US Biological), and 10 U alkaline phosphatase (Promega) and analyzed for 8-OHG content with RNA Damage Kit (Cell Biolabs, Inc.) and 8-OHG standards, following manufacturer's protocols.

[1] = test system: subgenomic HCV replicon of genotype 1b (Con1S1179I), NS5A region; assay: NS5A sequencing of HCV RNA, nucleotide and amino acid substitution rates in Con1 replicon cells (Example 2); format: cell-based, Hepatitis C virus; settings: for amino acid substitution rate in the BSO group with co-treatment: 20 μM BSO daily for 48 hr; for amino acid substitution rate in the BSO group with co-treatment / amino acid substitution rate in the ethanol group with co-treatment / nt. substitution rates of ethanol and BSO groups with co-treatment / dn/ds ratio in the BSO group with co-treatment: 10 μM dipyridyl or 2 mM GSH ester; for amino acid substitution rate in the ethanol group with co-treatment: 0.5% ethanol daily for 48 hr; for nt. substitution rates of ethanol and BSO groups with co-treatment: 0.5% ethanol or 20 μM BSO daily for 48 hr; for percentage of sites undergoing positive selection with co-treatment: FIG. 8A; for dn/ds ratio of the control group with co-treatment: from 0.31 without inhibitor; for dn/ds ratio in the BSO group with co-treatment: from 0.72 without inhibitor, 48 hr; for Nt. change per site: Con1 replicon cells, once daily for 48 hrs, T7 baseline subtracted, ethanol 0.5% v/v, BSO 20 μM, H2O2 100 μM, acetaldehyde 10 μM; for Fold increase (Amino acid change per site): over control, 48 hrs
Protocol: Huh7 cell clones (SgPC2 cells) supporting continuous replication of a subgenomic HCV replicon of genotype 1b (Con1S1179I sequence) were used (Choi J. et al. (2004) Hepatology 39:81-89; Blight K J et al. (2000) Science 290:1972). Subgenomic replicons support the HCV RNA genome replication by the viral replicase but no virus is formed. The in vitro transcription, transfection of the viral RNA, and Huh7 human hepatoma cell culture were performed as described (Choi J. et al. (2004) Hepatology 39:81-89; Blight K J et al. (2000) Science 290:1972). All biochemicals including ethanol (molecular biology grade), acetaldehyde, BSO, H2O2, dipyridal, and GSH ethyl ester were obtained from SigmaAldrich except PIH, which was synthesized according to published methods (Kicic A et al., (2001) Cancer 92: 3093-3110; Ponka P. et al., (1979) FEBS Lett 97: 317-321).
Total RNAs were collected using Trizol (Invitrogen). Then, the NS5A region (nt. 4612 to 6013 of Con1 replicon) was reverse transcribed/amplified with AccuScript High Fidelity RT-PCR System (Agilent). The reverse primer used for reverse transcription and PCR amplification was 5′-[…]-3′ (SEQ ID NO: 1), and the forward primer was 5′-[…]-3′ (SEQ ID NO: 2). The XbaI and HindIII restriction enzyme sites are underlined. The cDNA products were cloned into pUC19 via HindIII and XbaI sites and sequenced at the Joint Genome Institute (Livermore, Calif.) and University of California Berkeley Sequencing (Berkeley, Calif.). Sequences were aligned against Con1(S1179I) sequence, using BioEdit/MEGA 4.0 Molecular Evolutionary Genetics Analysis software. Cumulative synonymous and nonsynonymous mutations were computed using Synonymous Nonsynonomous Analysis Program (SNAP; www.hcv.lanl.gov). The […] ratio was calculated using SNAP. Amino acid substitution trends were analyzed by position with MutationCounter, a mutation counting program, developed for this project. The sequences were compared with 1,212 genotype 1b NS5A sequences pooled from the Lawrence Livermore HCV sequence database (www.hcv.lanl.gov) which included sequences from the European, Asian, and Russian databases. Sequences harboring gaps, undetermined nucleotides, or incomplete NS5A sequences were removed prior to the analysis.
To test whether ethanol can affect the HCV RNA sequence, Con1 replicon cells that support genotype 1b subgenomic HCV RNA replication were incubated with ethanol (0.5% v/v), BSO (20 μM), H2O2 (100 μM), or acetaldehyde (10 μM) once daily for 48 hrs with a change of the cell culture medium at the time of each treatment. Acetaldehyde and H2O2 are generated during hepatic metabolism of ethanol. BSO, by inhibiting GSH biosynthesis, mimics GSH depletion seen in hepatitis C patients. GSH participates in detoxification reactions that remove reactive species such as H2O2 and acetaldehyde. Thus, by decreasing GSH, BSO also amplifies the effects of endogenous ROS and RNS, allowing one to test the effects of endogenous ROS/RNS. Then, the RNA was collected, and the NS5A region corresponding to nt. 4612 to 6013 of Con1 replicon was reverse transcribed using AccuScript reverse transcriptase and amplified with PfuUltra (Agilent). PfuUltra is a high fidelity DNA polymerase with an error rate of 4.3×10^−9; AccuScript reverse transcriptase has an error rate of 1.61×10^−7. Then, the cDNA products were cloned into pUC19 and sequenced by the Sanger method.

[2] = test system: subgenomic HCV replicon of genotype 1b (Con1), NS5A region; assay: NS5A sequencing of HCV RNA, mutation frequency in SgPC2 Con1 replicon cells (Example 1); format: cell-based, Hepatitis C virus; settings: H2O2 100 μM, acetaldehyde 10 μM, once daily for 48 hrs
Protocol: Huh7 cell clones (SgPC2 cells) supporting continuous replication of a subgenomic HCV replicon of genotype 1b (Con1 sequence) were used (Choi J. et al. (2004) Hepatology 39:81-89; Blight K J et al. (2000) Science 290:1972). The subgenomic replicons support HCV RNA replication but no virus is formed. The in vitro transcription, transfection of HCV RNA, and Huh7 human hepatoma cell culture were performed by methods known in the art and as previously described (Choi J. et al. (2004) Hepatology 39:81-89; Blight K J et al. (2000) Science 290:1972).
After various treatments, total RNAs were collected using Trizol (Invitrogen). Then, the NS5A region (nt. 4612 to 6013 of Con1 replicon) was reverse transcribed/amplified with AccuScript High Fidelity RT-PCR System (Stratagene). The cDNAs were cloned into pUC19 and sequenced at the Joint Genome Institute (Livermore, Calif.). Sequences were aligned against Con1(S11791) sequence, using BioEdit/MEGA 4.0 Molecular Evolutionary Genetics Analysis software.
To test whether ethanol can increase the mutation rate of HCV, SgPC2 Con1 replicon cells that support genotype 1b subgenomic HCV RNA replication (FIG. 2B) were incubated with ethanol (0.5%), BSO (amplifies the effects of endogenous ROS/RNS by decreasing the level of glutathione in the cell), H2O2 (100 μM), or acetaldehyde (10 μM) once daily for 48 hrs. Then, the RNAs were collected, and the NS5A region (nt. 4612 to 6013 of Con1 replicon) was reverse transcribed/amplified with AccuScript High Fidelity RT-PCR System (Stratagene). Then, the cDNAs were cloned into pUC19 and sequenced at the Joint Genome Institute (Livermore, Calif.). T7 HCV RNA transcript, initially used to transfect the Con1 cells, was also sequenced to assess the basal level of RNA heterogeneity, such as due to any heterogeneity of the DNA template prior to in vitro transcription as well as any errors generated during transcription and RT-PCR cloning. The experiments were focused on NS5A because of its moderate level of diversity and its role in viral replication as well as interferon resistance. Sequences were aligned against Con1(S1179I) sequence, using BioEdit/MEGA 4.0 Molecular Evolutionary Genetics Analysis software.

C=CCSSCC=C [DADS, diallyl disulfide]
level of 8-OHG in ethanol and BSO-treated replicon cells with inhibitor (Con1 replicon cells): reduce; also recorded: decreased

O=C(O)CN(CCN(CC(=O)O)CC(=O)O)CCN(CC(=O)O)CC(=O)O [DETAPAC, 1,1,4,7,7-diethylenetriaminepentaacetic acid]
level of 8-OHG in ethanol and BSO-treated replicon cells with inhibitor (Con1 replicon cells): decreased
decrease of 8-OHG levels in BSO-treated SgPC2 cells (Con1 replicon cells; DETAPAC 0.1 mM): 19.7±0.2%
decrease of 8-OHG levels in control SgPC2 cells (Con1 replicon cells; DETAPAC 0.1 mM): 28.0±0.3%
decrease of 8-OHG levels in ethanol-treated SgPC2 cells (Con1 replicon cells; DETAPAC 0.1 mM): 13.8±0.3%

c1ccc2c(c1)[I+]c1ccccc1-2 [DPI, diphenylene iodonium]
level of 8-OHG in ethanol and BSO-treated replicon cells with inhibitor (Con1 replicon cells): reduce; also recorded: decreased

c1ccc(-c2ccccn2)nc1 [Dipyridyl, α,α′-Dipyridyl]
level of 8-OHG in ethanol and BSO-treated replicon cells with inhibitor (Con1 replicon cells): significantly decreased
dn/ds ratio in the ethanol group with co-treatment [1]: 0.46
amino acid substitution rate in the BSO group with co-treatment [1]: effectively abolished
amino acid substitution rate in the ethanol group with co-treatment [1]: significantly attenuated
nt. substitution rates of ethanol and BSO groups with co-treatment [1]: no longer any significant increase over the control
percentage of sites undergoing positive selection with co-treatment [1]: decreased
dn/ds ratio of the control group with co-treatment [1]: did not affect
dn/ds ratio in the BSO group with co-treatment [1]: 0.46

CCOC(=O)CNC(=O)[C@H](CS)NC(=O)CC[C@H](N)C(=O)O [GSH ester, glutathione ethyl ester]
level of 8-OHG in ethanol and BSO-treated replicon cells with inhibitor (Con1 replicon cells): reduce; also recorded: effectively decreased
dn/ds ratio in the ethanol group with co-treatment [1]: 0.43
amino acid substitution rate in the BSO group with co-treatment [1]: not significantly above the control
amino acid substitution rate in the ethanol group with co-treatment [1]: not significantly above the control
nt. substitution rates of ethanol and BSO groups with co-treatment [1]: not significantly above the control
percentage of sites undergoing positive selection with co-treatment [1]: decreased
dn/ds ratio of the control group with co-treatment [1]: 0.24
dn/ds ratio in the BSO group with co-treatment [1]: 0.21

OO [H2O2, hydrogen peroxide]
increase in mutation frequency vs control [2]: not statistically significant
Nt. change per site [1]: 5.28×10^−4 nt. change per site
Fold increase (Amino acid change per site) [1]: about 10 fold

CC(=O)O.CNC(=N)NCCC[C@H](N)C(=O)O [L-NMA, N^G-methyl-L-arginine acetate]
level of 8-OHG in ethanol and BSO-treated replicon cells with inhibitor (Con1 replicon cells): reduce; also recorded: decreased

[Cl][Ni][Cl] [NiCl2]
fold increase in 8-OHG content over the control (Con1 replicon cells; 48 hrs, 0.5% (v/v) ethanol, 20 μM BSO, 250 μM NiCl2 daily): 55.4±3.1 fold

Cc1ncc(CO)c(C=NNC(=O)c2ccncc2)c1O [PIH, pyridoxal isonicotinoyl hydrazone]
level of 8-OHG in ethanol and BSO-treated replicon cells with inhibitor (Con1 replicon cells): decreased
level of 8-OHG in ethanol and BSO-treated replicon cells with inhibitor (Con1 replicon cells; listed as pyridoxal isonicotinoyl hydrazone): significantly decreased

CC=O [acetaldehyde]
8-OH-G in Con1 replicon (SgPC2) cells, daily treatment for 2 weeks (Con1 replicon cells; 0.1% ethanol, 5 μM acetaldehyde, 20 μM BSO): significant increases
increase in mutation frequency vs control [2]: not statistically significant
Nt. change per site [1]: 4.25×10^−4 nt. change per site
Fold increase (Amino acid change per site) [1]: did not increase

From patent publication US20110206638A1, “COMPOSITIONS AND METHODS FOR REDUCING THE MUTATION RATE OF VIRUSES” (priority 2010, published 2011)
